“Also recorded” adds a separate entry of the source. Where no end group is shown, it is not given here. [ ]: non-standard residue; d: D form. Ahx = NCCCCCC(=O)O
Key:
[1] = Dynamic light scattering and zeta potential of nanoparticles; type: physicochemical; details: for PdI / Mean size (nm) I (%) / Mean size (nm) Nb (%): CPP:siRNA R = 20, 5% glucose; for Mean size (nm) I (%): intensity; for Mean size (nm) Nb (%): number
Procedure: Dynamic light scattering (DLS) and Zeta potential (ZP). CPPs:siRNA nanoparticles were evaluated with a Zetasizer NanoZS (Malvern) in terms of mean size (Z-average) of the particle distribution and of homogeneity (PdI). Zeta potential was determined in 5% glucose+5 mM of NaCl. All results were obtained from three independent measurements (three runs for each measurement at 25° C.).

[2] = tested on: firefly luciferase (FLuc) in U87 cells; assay: Luciferase reporter gene silencing assay; type: cell-based, human; details: for Luciferase knock-down at R=40 relative to R=20: R=40, siFLuc 20 nM; for Incubation time for maximum and saturating FLuc silencing / Reduction of FLuc activity: 20 nM siFLuc; for Reduction in the luciferase activity in presence of serum: 10% serum, 15-20 nM siRNA (CPP1), 10-20 nM (CPP2); for Reduction of FLuc activity: 5 min incubation, then 36 h in medium; for Fold more active than C6M1-L in reduced luciferase expression / Fold more active than C6M1 in reduced luciferase expression: CPP=200 nM, siRNA=10 nM; for Activity of nanoparticles in luciferase silencing: R=20, siFLuc, compared with parent CPP
Procedure: Transfection experiments. For Luciferase assay, the different cells (5,000 cells per well) were seeded 24 h before experiment into 96-well plates using the corresponding medium as described above. […] In the meantime, the growth medium covering the cells was replaced by 70 μL of fresh pre-warmed serum-free DMEM. […] After the addition of DMEM supplemented with 20% FBS (final FBS concentration=10%), cells were further incubated for 36 h and finally lysed for the luciferase detection. For transfection in the presence of serum, cells were incubated with nanoparticles in DMEM+10% FBS for 1.5 h at 37° C., and then DMEM supplemented with 10% FBS were added to the cells which were further incubated for 36 h before the final cell lyses for the luciferase detection.
Luciferase reporter gene silencing assay. The evaluation of siRNA delivery using the different vectors was carried out by measuring the remaining luciferase firefly (FLuc) activity in cell lysates. Briefly, after 36 h, the medium covering the cells was carefully removed and replaced by 50 μL of 0.5× Passive Lysis Buffer (PLB; Promega). After 30 min of shaking at 4° C., plates containing the cells were centrifuged (10 min, 1,800 rpm, 4° C.) and 5 μL of each cell lysate supernatant were finally transferred into a white 96-well plate. For the U87-FLuc-NLuc cells, both luciferase activities were quantified using a plate-reading luminometer (POLARstar Omega, BMG Labtech) using half-diluted Dual Luciferase Assay Reagents (Promega) as reported elsewhere (G. Aldrian, et al., (2017) J. Control. Release Off. J. Control. Release Soc. 256, 79-91). The results were expressed as percentage of relative light units (RLU) for each luciferase normalized first to non-treated cells (% FLuc and % NLuc) and then normalized to the value of % NLuc to obtain the Relative Luc Activity (% FLuc/% NLuc).
Cellular activity of CPP-based nanoparticles was evaluated in a luciferase screening assay, as previously described (L. N. Patel, et al., (2007) Pharm. Res. 24, 1977-1992; A. Elmquist, et al., (2001) Exp. Cell Res. 269, 237-244)). The knock-down efficiency of the different CPP:siRNA nanoparticles was performed on U87 cell line stably transfected for constitutive expression of FLuc/NLuc reporter genes (U87-FRT-CMV/Fluc-CMV/iRFP-IRES-NLuc).

[3] = Circular dichroism conformational analysis; type: physicochemical; details: for Conformation by circular dichroism, PEPTIDE +siRNA: CPP:siRNA molar ratio R 20, CPP 40 μM; for Conformation by circular dichroism, PEPTIDE +siRNA +charged LUVs / Conformation by circular dichroism, PEPTIDE +siRNA +neutral LUVs: R 20, CPP:lipid r 10, CPP 40 μM; for Conformation by circular dichroism, PEPTIDE: peptide free in solution, CPP 40 μM, rc = random coiled
Procedure: Circular dichroism (CD) measurements. CD spectra were recorded on a Jasco 810 (Japan) dichrograph in quartz suprasil cells (Hellma) with an optical path of 1 mm for peptide in solution or in the presence of liposomes vesicles. The same concentrations of peptide (40 μM) was used for each condition. Spectra were obtained from 3 accumulations between 190 nm and 260 nm with a data pitch of 0.5 nm, a bandwidth of 1 nm and a standard sensitivity.
The predicted structures were then compared to experimental investigations. Circular dichroism spectra were recorded for the peptides free in solution, afterwards for the peptides in the presence of siRNA and then after the addition of liposomes.

[4] = Dynamic light scattering and zeta potential of nanoparticles; type: physicochemical
living U87 cells = assay: Spinning disk internalization kinetics of Cy3b-labelled siRNA; type: cell-based, human; details: siRNA-Cy3b 20 nM, R=20; for Incubation time to maximal fluorescence of delivered siRNA: maximal fluorescence 90%±5%, 900 s to 945 s
Procedure: For microscopy experiments, 300,000 U87 cells were seeded 24 h before imaging into glass bottom dishes (FluoroDish, World Precision Instruments). Before experiments, cells were washed twice with D-PBS and covered with 1,600 μL of complete medium. Afterwards, 400 μL of NPs (peptide:siRNA; R=20, siRNA=20 nM), formulated in an aqueous solution of 5% glucose were directly added on the cells as previously described.
For Spinning disk experiment, an inverted microscope (Nikon Ti Eclipse) coupled to a spinning disk (ANDOR) system was used to study the internalization kinetics of the NPs inside living cells. After the addition of the NPs, cells were maintained at 37° C. by a cage incubator (Okolab) and images were directly recorded every 5 s for 1,200 s with an EM-CCD camera (iXon Ultra) and projected with the Andor IQ3 software. Control experiments were performed to ensure that no emission bleed through was observed between the different channels. All images were treated with the ImageJ software.

U87 cells [5] = assay: LDH cytotoxicity measurement; type: cell-based, human; details: incubation times 5 min to 90 min, 20 nM siFLuc
Procedure: Measurement of cell cytotoxicity. Evaluation of cytotoxicity induced by the nanoparticles was performed using Cytotoxicity Detection Kit^Plus (LDH, Roche Diagnostics) on 50 μL of supernatant, by following the manufacturer instructions.

U87 cells [6] = assay: Cytotoxicity from Western blot internal control (vinculin) and total protein (BCA); type: cell-based, human; details: siCDK4 50 nM
Procedure: Western blotting. Transfected cells washed in PBS, and lysed in RIPA buffer [50 mM Tris pH 8.0, 150 mM sodium chloride, 1% Triton X-100, 0.1% SDS (sodium dodecyl sulfate, Sigma-Aldrich), including protease inhibitors (SigmaFAST, Sigma-Aldrich)]. Cells were incubated for 5 min on ice with 130 μL/24-well lysis buffer. Thereafter, cells were scrapped and transferred in a 1.5 ml tube. After 5 min on ice, the cell lysates were centrifuged (10 min, 13,400 rpm, 4° C.), supernatants were collected and protein concentrations were determined using the Pierce BCA Protein Assay (ThermoFisher). Cell extracts (0.25-0.38 μg/μL) were separated by 4-20% Mini-PROTEAN® TGX™ Precast Gel (Bio-Rad). After electrophoresis, samples were transferred onto Trans-Blot® Turbo™ Mini PVDF Transfer membrane (Bio-Rad). As antibodies (all from Cell Signaling), we used anti-cyclin B1 mouse mAb V152, anti-CDK4 rabbit mAb D9G3E, anti-Vinculin rabbit mAb E1E9V, anti-mouse IgG HRP and anti-rabbit IgG HRP. […] The signal intensities of the blots were quantified by Image J.
The cytotoxicity could be observed in Western blot using the internal control (Vinculin expression: bars in dark gray) or the total protein concentrations (measured by the BCA kit, value in red).

Row | Substance | PdI [1] | Luciferase knock-down at R=40 relative to R=20 [2] | Conformation by circular dichroism, PEPTIDE +siRNA [3] | Conformation by circular dichroism, PEPTIDE +siRNA +charged LUVs [3] | Conformation by circular dichroism, PEPTIDE +siRNA +neutral LUVs [3] | Conformation by circular dichroism, PEPTIDE [3] | Mean size (nm) I (%) [1] [nm] | Mean size (nm) Nb (%) [1] [nm] | other results
1 | LLRLLRWWRLLRLL (CPP3) | around 0.3 | slightly increased | alpha helical structure; also recorded: helix | helix | helix | turn |  |  | 
2 | LLRLLRWWWRLLRLL-NH2 [CPP2, LLRLLRWWWRLLRLL] |  | slightly increased | alpha helical structure; also recorded: helix | helix | helix | turn/rc | 80.0 ± 4.9 | 35.7 ± 7.3 | Reduction of firefly luciferase expression ([2]; 1 nM to 20 nM siRNA, R 20, L or D isoform): dose-dependent manner; Incubation time for maximum and saturating FLuc silencing [2]: 60 min; Reduction in the luciferase activity in presence of serum [2]: around 70%; Reduction of FLuc activity [2]: 40%; Fold more active than C6M1-L in reduced luciferase expression [2]: 3.5 fold; Fold more active than C6M1 in reduced luciferase expression [2]: 2 fold; Increase of knock-down efficiency, dilution condition versus vol:vol condition ([2]; U87 cells, siFLuc 5-20 nM): 2 fold; ZP (mV) ([4]; CPP:siRNA R = 20, 5% glucose with 1 mM NaCl): 28.8 ± 0.9 mV; IC50 values of internalization (50%), incubation time (living U87 cells): 185 s; Incubation time to maximal fluorescence of delivered siRNA (living U87 cells): ~15 min; Cytotoxicity (U87 cells [5]): without any cytotoxicity
3 | LLRLLRWWWWRLLRLL [CPP4] |  | slightly increased | alpha helical structure; also recorded: helix | helix | helix | turn | 122.0 ± 71.5 | 23.6 ± 7.9 | 
4 | LLRLRWWWRLRLL (CPP2-2) |  |  |  |  |  |  |  |  | Activity of nanoparticles in luciferase silencing [2]: total inactivity
5 | LLWRLWRLLWRLWRLL-NH2 [CPP1, LLWRLWRLLWRLWRLL] |  | slightly increased | alpha helical structure; also recorded: helix | helix | helix | rc/helix | 73.3 ± 7.4 | 26.5 ± 4.1 | ZP (mV) ([1]; CPP:siRNA R = 20, 5% glucose with 5 mM NaCl): 42.2 ± 4.5 mV; Incubation time for maximum and saturating FLuc silencing [2]: 60 min; Reduction in the luciferase activity in presence of serum [2]: around 70%; Reduction of FLuc activity [2]: 40%; Fold more active than C6M1-L in reduced luciferase expression [2]: 6 fold; Fold more active than C6M1 in reduced luciferase expression [2]: 3 fold; Mean size of CPP1:MBBO nanoparticles (DLS) ([4]; R=5, 10 μM CPP1): 180 nm; IC50 values of internalization (50%), incubation time (living U87 cells): 240 s; Incubation time to maximal fluorescence of delivered siRNA (living U87 cells): ~15 min; Cytotoxicity (vinculin, total cellular proteins) (U87 cells [6]): without any cytotoxicity; Cytotoxicity (U87 cells [5]): without any cytotoxicity
6 | LRLRWWWRLRL (CPP2-1) |  |  |  |  |  |  |  |  | Activity of nanoparticles in luciferase silencing [2]: total inactivity
7 | RGD-Ahx-LLRLLRWWWRLLRLL (RGD[Ahx]LLRLLRWWWRLLRLL) [R-CPP2] |  |  |  |  |  |  |  |  | Reduction in the expression of luciferase ([2]; RGD-grafted peptide, R=20): ~70%
8 | RLLRLLRWWWRLLRLLR (CPP2-6R) | 0.34 ± 0.03 |  |  |  |  |  | 59.8 ± 9.3 | 25.9 ± 3.9 | 
9 | RLLRLLWWWLLRLLR-NH2 [CPP2-4R, RLLRLL-WWW-LLRLLR] |  |  |  |  |  |  |  |  | Cytotoxic effect inferred from variability of luciferase measurement ([2]; nanoparticle incubation): some cytotoxic effect
10 | RLLWRLW-----LWRLLR (RLLWRLWLWRLLR; CPP1-4R) | 0.50 ± 0.04 |  |  |  |  |  | 1012 ± 984 | 422 ± 498 | 
11 | RLLWRLWRLLWRLWRLLR (CPP1-6R) | 0.42 ± 0.08 |  |  |  |  |  | 125.3 ± 65.1 | 23.3 ± 3.4 | 
